In the NIST ThermoML archive (doi:10.1021/je700671t):
Numbers after ± are expanded uncertainties.

Test: xn = mol fraction of the nth substance listed
Conditions: 101 kPa, Liquid; for viscosity: Capillary tube (Ostwald / Ubbelohde) method

CN(C)C=O [dimethylformamide] + O
Conditions	mass density [kg/m3]	viscosity [mPa·s]
283.15 K, x1 = 0.02	1000.31 ± 0.22	–
283.15 K, x1 = 0.04	1001.42 ± 0.28	–
283.15 K, x1 = 0.06	1002.8 ± 0.3	–
283.15 K, x1 = 0.08	1004.13 ± 0.29	–
283.15 K, x1 = 0.1	1005.32 ± 0.27	–
283.15 K, x1 = 0.2	1007.64 ± 0.14	–
283.15 K, x1 = 0.3	1004.4 ± 0.24	–
283.15 K, x1 = 0.398	997.83 ± 0.31	–
283.15 K, x1 = 0.498	990.56 ± 0.34	–
283.15 K, x1 = 0.599	983.02 ± 0.34	–
283.15 K, x1 = 0.697	976.07 ± 0.33	–
283.15 K, x1 = 0.798	969.84 ± 0.31	–
283.15 K, x1 = 1	958.96 ± 0.25	–
288.15 K, x1 = 0.02	999.23 ± 0.15	–
288.15 K, x1 = 0.04	999.91 ± 0.21	–
288.15 K, x1 = 0.06	1000.87 ± 0.23	–
288.15 K, x1 = 0.08	1001.82 ± 0.22	–
288.15 K, x1 = 0.1	1002.67 ± 0.21	–
288.15 K, x1 = 0.2	1003.86 ± 0.15	–
288.15 K, x1 = 0.3	1000.1 ± 0.25	–
288.15 K, x1 = 0.398	993.31 ± 0.32	–
288.15 K, x1 = 0.498	985.94 ± 0.34	–
288.15 K, x1 = 0.599	978.36 ± 0.35	–
288.15 K, x1 = 0.697	971.37 ± 0.34	–
288.15 K, x1 = 0.798	965.11 ± 0.32	–
288.15 K, x1 = 1	954.17 ± 0.26	–
293.15 K, x1 = 0.02	997.92 ± 0.13	1.234 ± 0.043
293.15 K, x1 = 0.04	998.2 ± 0.16	1.442 ± 0.044
293.15 K, x1 = 0.06	998.77 ± 0.18	1.656 ± 0.042
293.15 K, x1 = 0.08	999.37 ± 0.17	1.847 ± 0.043
293.15 K, x1 = 0.1	999.9 ± 0.16	2.062 ± 0.045
293.15 K, x1 = 0.2	1000.01 ± 0.16	2.782 ± 0.024
293.15 K, x1 = 0.3	995.76 ± 0.27	2.954 ± 0.018
293.15 K, x1 = 0.398	988.76 ± 0.33	2.622 ± 0.023
293.15 K, x1 = 0.498	981.3 ± 0.35	2.162 ± 0.023
293.15 K, x1 = 0.599	973.67 ± 0.35	1.713 ± 0.02
293.15 K, x1 = 0.697	966.65 ± 0.34	1.377 ± 0.016
293.15 K, x1 = 0.798	960.37 ± 0.32	1.153 ± 0.013
293.15 K, x1 = 1	949.39 ± 0.27	0.864 ± 0.01
298.15 K, x1 = 0.02	996.39 ± 0.15	–
298.15 K, x1 = 0.04	996.31 ± 0.13	–
298.15 K, x1 = 0.06	996.53 ± 0.14	–
298.15 K, x1 = 0.08	996.8 ± 0.14	–
298.15 K, x1 = 0.1	997.03 ± 0.14	–
298.15 K, x1 = 0.2	996.13 ± 0.18	–
298.15 K, x1 = 0.3	991.4 ± 0.28	–
298.15 K, x1 = 0.398	984.18 ± 0.34	–
298.15 K, x1 = 0.498	976.64 ± 0.35	–
298.15 K, x1 = 0.599	968.96 ± 0.36	–
298.15 K, x1 = 0.697	961.92 ± 0.35	–
298.15 K, x1 = 0.798	955.63 ± 0.33	–
298.15 K, x1 = 1	944.6 ± 0.27	–
303.15 K, x1 = 0.02	994.67 ± 0.19	0.97 ± 0.031
303.15 K, x1 = 0.04	994.25 ± 0.15	1.114 ± 0.032
303.15 K, x1 = 0.06	994.14 ± 0.14	1.269 ± 0.031
303.15 K, x1 = 0.08	994.11 ± 0.14	1.407 ± 0.03
303.15 K, x1 = 0.1	994.05 ± 0.14	1.55 ± 0.042
303.15 K, x1 = 0.2	992.19 ± 0.2	2.051 ± 0.018
303.15 K, x1 = 0.3	986.99 ± 0.3	2.179 ± 0.014
303.15 K, x1 = 0.398	979.57 ± 0.35	1.979 ± 0.017
303.15 K, x1 = 0.498	971.95 ± 0.36	1.675 ± 0.017
303.15 K, x1 = 0.599	964.24 ± 0.36	1.382 ± 0.015
303.15 K, x1 = 0.697	957.18 ± 0.35	1.149 ± 0.013
303.15 K, x1 = 0.798	950.87 ± 0.33	0.985 ± 0.011
303.15 K, x1 = 1	939.83 ± 0.28	0.766 ± 0.009
308.15 K, x1 = 0.02	992.74 ± 0.24	–
308.15 K, x1 = 0.04	992.03 ± 0.18	–
308.15 K, x1 = 0.06	991.61 ± 0.16	–
308.15 K, x1 = 0.08	991.29 ± 0.15	–
308.15 K, x1 = 0.1	990.98 ± 0.16	–
308.15 K, x1 = 0.2	988.2 ± 0.22	–
308.15 K, x1 = 0.3	982.55 ± 0.31	–
308.15 K, x1 = 0.398	974.94 ± 0.36	–
308.15 K, x1 = 0.498	967.24 ± 0.36	–
308.15 K, x1 = 0.599	959.49 ± 0.37	–
308.15 K, x1 = 0.697	952.42 ± 0.36	–
308.15 K, x1 = 0.798	946.1 ± 0.34	–
308.15 K, x1 = 1	935.05 ± 0.29	–
313.15 K, x1 = 0.02	990.67 ± 0.29	0.783 ± 0.024
313.15 K, x1 = 0.04	989.66 ± 0.22	0.891 ± 0.024
313.15 K, x1 = 0.06	988.95 ± 0.19	1.003 ± 0.023
313.15 K, x1 = 0.08	988.37 ± 0.19	1.103 ± 0.023
313.15 K, x1 = 0.1	987.8 ± 0.19	1.208 ± 0.03
313.15 K, x1 = 0.2	984.15 ± 0.25	1.564 ± 0.015
313.15 K, x1 = 0.3	978.07 ± 0.33	1.66 ± 0.012
313.15 K, x1 = 0.398	970.26 ± 0.36	1.538 ± 0.013
313.15 K, x1 = 0.498	962.5 ± 0.37	1.337 ± 0.014
313.15 K, x1 = 0.599	954.73 ± 0.37	1.14 ± 0.013
313.15 K, x1 = 0.697	947.64 ± 0.36	0.971 ± 0.012
313.15 K, x1 = 0.798	941.33 ± 0.34	0.847 ± 0.01
313.15 K, x1 = 1	930.27 ± 0.29	0.684 ± 0.009
318.15 K, x1 = 0.02	988.43 ± 0.34	–
318.15 K, x1 = 0.04	987.14 ± 0.27	–
318.15 K, x1 = 0.06	986.17 ± 0.23	–
318.15 K, x1 = 0.08	985.33 ± 0.22	–
318.15 K, x1 = 0.1	984.53 ± 0.22	–
318.15 K, x1 = 0.2	980.05 ± 0.27	–
318.15 K, x1 = 0.3	973.55 ± 0.34	–
318.15 K, x1 = 0.398	965.56 ± 0.37	–
318.15 K, x1 = 0.498	957.73 ± 0.38	–
318.15 K, x1 = 0.599	949.93 ± 0.38	–
318.15 K, x1 = 0.697	942.85 ± 0.37	–
318.15 K, x1 = 0.798	936.53 ± 0.35	–
318.15 K, x1 = 1	925.49 ± 0.3	–
